Results published in patent US20260125335A1, “SYNTHETIC C[…], PHARMACEUTICAL COMPOSITIONS, AND METHODS OF TREATING BACTERIAL INFECTIONS AND OTHER DISORDERS” (priority 2023, published 2026).
Values after ≈ are worked out from the molar mass of the structure shown. Read-outs that look alike come from different tables or passages of the source.

Assays:
Type in all cases: cell-based
[1] = tested on: Staphylococcus aureus; test: Broth microdilution MIC assay, Staphylococcus aureus
Experimental: (§1) This example illustrates evaluating in vitro activity of (Z)-2-(3,6-dimethylhepta-2,5-dien-1-yl)-5-pentylbenzene-1,3-diol (Example 1, “M194”) against gram-positive and gram-negative bacteria. In this study, in vitro activity was determined against a diverse panel of Gram-positive and Gram-negative bacteria associated with a variety of infections. Broth microdilution MIC assays were conducted following guidelines recommended by the Clinical and Laboratory Standards Institute (CLSI; 1-3).
(§2) The compound M194 was provided in powder form and initially stored at room temperature prior to testing. A stock solution of M194 in DMSO/DMSO solvent/diluent was made at 101× the final testing concentration and tested over ranges of 0.06-64 μg/mL.
(§3) Test organisms consisted of isolates from the American Type Culture Collection (ATCC; Manassas, VA) and the Micromyx Repository (MMX; Kalamazoo, MI). Upon initial receipt at Microbiologics, the organisms were sub-cultured onto an appropriate agar medium and incubated under atmospheric conditions required for growth. Following incubation for 18 to 24 hr at 35° C. in the appropriate atmosphere, colonies were harvested from these plates and cell suspensions were prepared and frozen at −80° C. with a cryoprotectant. Prior to testing, isolates were streaked from frozen vials onto the appropriate agar. Unless otherwise noted, Trypticase Soy Agar with 5% sheep blood (Remel; Lenexa, KS; Lot No. 693244) was used and inoculated plates were incubated at 35° C. overnight in ambient atmosphere. Haemophilus influenzae isolates were streaked onto Chocolate agar (Becton Dickinson [BD]; Sparks, MD; Lot No. 3157581). Streptococcus spp., Moraxella spp., and H. influenzae inoculated plates were incubated at 35° C. overnight in 5% CO2.
(§4) Organisms were tested in the appropriate media according to CLSI guidelines (1-3). Cation-Adjusted Mueller Hinton broth (CAMHB) was made by supplementing Mueller Hinton Broth (MHB; BD; Lot No. 1285575) to a final concentration of 20 mg/L Ca++ (Sigma; St. Louis, MO; Lot. No. 084K0215) and 12.5 mg/L Mg++ (VWR; Radnor, PA; Lot. No. 22C0856290). CAMHB was used for broth microdilution testing except for isolates requiring specialized media as described below.
(§5) The MIC assay method followed the procedures described by CLSI and employed automated liquid handlers to conduct serial dilutions and liquid transfers. Automated liquid handlers included the Multidrop Combi (ThermoScientific), Biomek 3000, and Biomek FX (Beckman Coulter; Fullerton, CA).
(§6) The wells in columns 2 through 12 in standard 96-well microdilution plates (Costar 3795) were filled with 150 μl of the appropriate diluent. These would become the “mother plates” from which “daughter,” or test plates, would be prepared. […]

[2] = tested on: Staphylococcus epidermidis; test: Broth microdilution MIC assay, Staphylococcus epidermidis
Experimental: as §1, §2
(§7) Test organisms consisted of isolates from the American Type Culture Collection (ATCC; Manassas, VA) and the Micromyx Repository (MMX; Kalamazoo, MI). Upon initial receipt at Microbiologics, the organisms were sub-cultured onto an appropriate agar medium and incubated under atmospheric conditions required for growth. Following incubation for 18 to 24 hr at 35° C. in the appropriate atmosphere, colonies were harvested from these plates and cell suspensions were prepared and frozen at −80° C. with a cryoprotectant. Prior to testing, isolates were streaked from frozen vials onto the appropriate agar. […]

[3] = tested on: Listeria monocytogenes; test: Broth microdilution MIC assay, Listeria monocytogenes; conditions: type —
Experimental: as §1, §2, §7

[4] = tested on: Pseudomonas aeruginosa; test: Broth microdilution MIC assay, Pseudomonas aeruginosa; conditions: for MIC: Pseudomonas aeruginosa
Experimental: as §1, §2, §3
(§8) Organisms were tested in the appropriate media according to CLSI guidelines (1-3). […]

[5] = tested on: Moraxella catarrhalis; test: Broth microdilution MIC assay, Moraxella catarrhalis
Experimental: as §1, §2, §7

[6] = tested on: Enterococcus faecalis; test: Broth microdilution MIC assay, Enterococcus faecalis
Experimental: as §1, §2, §3, §4, §5, §6

[7] = tested on: Streptococcus oralis; test: Broth microdilution MIC assay, Streptococcus oralis; conditions: type ERYR
Experimental: as §1, §2, §7

[8] = tested on: Streptococcus mutans; test: Broth microdilution MIC assay, Streptococcus mutans; conditions: type —
Experimental: as §1, §2, §7

[9] = tested on: Acinetobacter baumannii; test: Broth microdilution MIC assay, Acinetobacter baumannii
Experimental: as §1, §2, §3, §8

[10] = tested on: Staphylococcus spp. and Enterococcus spp.; test: Broth microdilution MIC assay, Staphylococcus spp. and Enterococcus spp.; conditions: all Staphylococcus spp.
Experimental: as §1, §2, §7

[11] = tested on: Serratia marcescens; test: Broth microdilution MIC assay, Serratia marcescens; conditions: type —
Experimental: as §1, §2, §7

[12] = tested on: Staphylococcus saprophyticus; test: Broth microdilution MIC assay, Staphylococcus saprophyticus; conditions: type MSS
Experimental: as §1, §2, §7

[13] = tested on: Streptococcus spp. and L. monocytogenes; test: Broth microdilution MIC assay, Streptococcus spp. and L. monocytogenes; conditions: all Streptococcus spp., compared with Staphylococcus spp. and Enterococcus spp.
Experimental: as §1, §2, §7

[14] = tested on: Streptococcus pyogenes; test: Broth microdilution MIC assay, Streptococcus pyogenes
Experimental: as §1, §2, §7

[15] = tested on: Neisseria gonorrhoeae; test: Broth microdilution MIC assay, Neisseria gonorrhoeae
Experimental: as §1, §2, §7

[16] = tested on: Enterobacter cloacae; test: Broth microdilution MIC assay, Enterobacter cloacae; conditions: type —
Experimental: as §1, §2, §7

[17] = tested on: Klebsiella pneumoniae; test: Broth microdilution MIC assay, Klebsiella pneumoniae
Experimental: as §1, §2, §7

[18] = tested on: Streptococcus agalactiae; test: Broth microdilution MIC assay, Streptococcus agalactiae
Experimental: as §1, §2, §7

[19] = tested on: Streptococcus constellatus; test: Broth microdilution MIC assay, Streptococcus constellatus; conditions: type —
Experimental: as §1, §2, §7

[20] = tested on: Enterobacterales; test: Broth microdilution MIC assay, Enterobacterales; conditions: any of the Enterobacterales
Experimental: as §1, §2, §7

[21] = tested on: Proteus mirabilis; test: Broth microdilution MIC assay, Proteus mirabilis; conditions: type —
Experimental: as §1, §2, §7

[22] = tested on: Escherichia coli; test: Broth microdilution MIC assay, Escherichia coli
Experimental: as §1, §2, §3, §8

[23] = tested on: Haemophilus influenzae; test: Broth microdilution MIC assay, Haemophilus influenzae; conditions: for MIC: Haemophilus influenzae
Experimental: as §1, §2, §3, §8

[24] = tested on: Citrobacter freundii; test: Broth microdilution MIC assay, Citrobacter freundii; conditions: type —
Experimental: as §1, §2, §7

[25] = tested on: Enterococcus faecium; test: Broth microdilution MIC assay, Enterococcus faecium
Experimental: as §1, §2, §7

`CCCCCc1cc(O)c(C/C=C(/C)CC=C(C)C)c(O)c1` [Example M194, (Z)-2-(3,6-dimethylhepta-2,5-dien-1-yl)-5-pentylbenzene-1,3-diol] was tested, and the MIC ([1]; MRSA, type MRSA, read-out: MIC) was 1 µg/mL (≈ 3.31 µM), the MIC ([1]; MSSA, type MSSA, QC, read-out: MIC) was 2 µg/mL (≈ 6.61 µM) and the MIC ([1]; MSSA, type MSSA, read-out: MIC) was 1 µg/mL (≈ 3.31 µM). The MIC ([1]; VISA, type VISA) was 2 µg/mL (≈ 6.61 µM), the MIC ([2]; type MRSE) was 1 µg/mL (≈ 3.31 µM) and the MIC ([2]; type MSSE) was 1 µg/mL (≈ 3.31 µM). For the same compound, the MIC [3] was 32 µg/mL (≈ 106 µM), the “in vitro activity (in words)” value ([4]; P. aeruginosa) was “not active” and the MIC ([4]; type MDR, VIM) was greater than 64 µg/mL. The MIC ([4]; type QC, read-out: MIC) was greater than 64 µg/mL, the “in vitro activity (in words)” value [5] was “had activity” and the MIC ([5]; type BL+) was 2 µg/mL (≈ 6.61 µM). For the same compound, the MIC ([6]; type VSE, QC, read-out: MIC) was 2 µg/mL (≈ 6.61 µM), the MIC ([6]; type VSE, read-out: MIC) was 1 µg/mL (≈ 3.31 µM) and the MIC ([6]; type vanA) was 1 µg/mL (≈ 3.31 µM). The MIC ([6]; type vanB) was 1 µg/mL (≈ 3.31 µM), the MIC [7] was 32 µg/mL (≈ 106 µM) and the MIC [8] was 32 µg/mL (≈ 106 µM). The “in vitro activity (in words)” value [9] was “not active”, the MIC ([9]; type MDR) was greater than 64 µg/mL and the MIC ([9]; type —, read-out: MIC) was greater than 64 µg/mL. For the same compound, the “in vitro activity (in words)” value [10] was “had activity”, the MIC [11] was greater than 64 µg/mL and the MIC [12] was 2 µg/mL (≈ 6.61 µM). For the same compound, the “in vitro activity (in words)” value [13] was “to a lesser degree”, the MIC ([14]; type ERYR) was 16 µg/mL (≈ 52.9 µM) and the MIC ([14]; type —, read-out: MIC) was 16 µg/mL (≈ 52.9 µM). The “in vitro activity (in words)” value ([15]; N. gonorrhoeae) was “had activity”, the MIC ([15]; Neisseria gonorrhoeae, type QC) was 1 µg/mL (≈ 3.31 µM) and the MIC [16] was greater than 64 µg/mL. It also gave an MIC ([17]; type QC, read-out: MIC) greater than 64 µg/mL, an MIC ([17]; type —) greater than 64 µg/mL and an MIC ([18]; type MLS) of 16 µg/mL (≈ 52.9 µM). The MIC ([18]; type —, read-out: MIC) was 16 µg/mL (≈ 52.9 µM), the MIC [19] was 16 µg/mL (≈ 52.9 µM) and the “in vitro activity (in words)” value [20] was “not active”. It also gave an MIC [21] greater than 64 µg/mL, an MIC ([22]; type ESBL) greater than 64 µg/mL and an MIC ([22]; type NDM-1) greater than 64 µg/mL. For the same compound, the MIC ([22]; type QC, read-out: MIC) was greater than 64 µg/mL, the MIC ([23]; ATCC49247, type QC (ATCC 49247 isolate)) was 4 µg/mL (≈ 13.2 µM) and the “in vitro activity (in words)” value ([23]; H. influenzae) was “had activity”. It also gave an MIC ([23]; type BL+ (beta-lactamase positive isolate MMX 7988)) of 32 µg/mL (≈ 106 µM), an MIC [24] greater than 64 µg/mL and an MIC ([25]; type vanA) of 1 µg/mL (≈ 3.31 µM). For the same compound, the MIC ([25]; type —, read-out: MIC) was 1 µg/mL (≈ 3.31 µM).
